Measured values reported in patent US12679839B2, “Cyclin-dependent kinase 7 (CDK7) non-covalent inhibitors” (JANSSEN PHARMACEUTICA NV, priority 2020, dated 2026).

Tests used:
[1] = biological target: T1, CDK7/Cyclin H/MAT-1 complex (Homo sapiens, UniProt P50613); experiment: Flint assay, end-point fluorescence (5 nM CDK7/Cyclin H/MAT-1 complex); type: biochemical
T1 construct: Human CDK7 (amino acids 1-346); His6 (N); TEV protease cleavage site (N); made in house; host or cells: baculovirus-SF9 insect cells
T1 sequence (P50613 whole entry, the tested form may be a part): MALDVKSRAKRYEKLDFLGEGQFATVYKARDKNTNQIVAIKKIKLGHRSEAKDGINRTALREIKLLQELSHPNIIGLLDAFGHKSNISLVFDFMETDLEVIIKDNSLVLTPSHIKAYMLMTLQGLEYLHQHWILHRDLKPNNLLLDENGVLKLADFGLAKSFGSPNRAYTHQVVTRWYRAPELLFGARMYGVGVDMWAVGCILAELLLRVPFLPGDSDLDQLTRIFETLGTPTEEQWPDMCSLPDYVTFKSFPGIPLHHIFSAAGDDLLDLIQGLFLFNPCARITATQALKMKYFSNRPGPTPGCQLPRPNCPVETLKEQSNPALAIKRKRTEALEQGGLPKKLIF
T1 sequence (P51946 whole entry partner, the tested form may be a part): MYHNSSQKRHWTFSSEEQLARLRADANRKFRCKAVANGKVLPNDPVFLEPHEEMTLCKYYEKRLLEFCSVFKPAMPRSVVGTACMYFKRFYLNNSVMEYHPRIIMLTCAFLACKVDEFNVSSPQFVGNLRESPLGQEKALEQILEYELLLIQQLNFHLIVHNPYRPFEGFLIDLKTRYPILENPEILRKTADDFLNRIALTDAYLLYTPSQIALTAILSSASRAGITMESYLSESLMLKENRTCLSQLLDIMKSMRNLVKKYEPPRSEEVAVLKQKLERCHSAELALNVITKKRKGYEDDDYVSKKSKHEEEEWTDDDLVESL
T1 sequence (P51948 whole entry partner, the tested form may be a part): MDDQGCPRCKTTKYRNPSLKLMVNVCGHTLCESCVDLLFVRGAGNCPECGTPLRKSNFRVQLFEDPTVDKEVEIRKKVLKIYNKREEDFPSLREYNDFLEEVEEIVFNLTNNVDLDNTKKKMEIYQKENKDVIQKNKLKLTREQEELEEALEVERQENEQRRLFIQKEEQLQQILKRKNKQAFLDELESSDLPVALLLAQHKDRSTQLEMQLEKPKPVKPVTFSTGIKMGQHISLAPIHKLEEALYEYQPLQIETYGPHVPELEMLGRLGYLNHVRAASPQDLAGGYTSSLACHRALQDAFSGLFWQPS
Procedure, shortened: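 Trimeric complex of His6-TEV-tagged human CDK7 (1-346), MAT1 (1-309) and cyclin H (1-323), co-expressed in Sf9 cells, at 5 nM final, with substrates and coupling reagents as in the absorbance assay; 24 h reaction. End-point NADH fluorescence decrease (ex 340/em 440 nm); % inhibition versus no-inhibitor and full-inhibition controls, IC50 from four-parameter Hill fit.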

[2] = system: RNA polymerase II Serine 5 phosphorylation (Rpb1 CTD), downstream substrate of CDK7; experiment: Imaging-based cellular RNA PolII Ser5 phosphorylation assay in A549 cells; type: cell-based, human; settings: Homo sapiens, A549, 3 h, challenged with compound for 3 hours, read-out: pRNA polII Ser5 (A549) pIC50 (converted)
Procedure, shortened: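 A549 cells seeded 20 h in DMEM with 1% FBS, then exposed to compound for 3 h at 37 °C; fixed, methanol-permeabilized and immunostained for phospho-Rpb1 CTD Ser5, read by automated imaging. Signal normalized to DMSO (high) and 10 μM LDC4297 (low) controls; IC50 from four-parameter fit of % control vs concentration.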

| CDK7 (5 nM) pIC50 [1] | melting point [°C] | IC50 [2] [nM] | SMILES |
| --- | --- | --- | --- |
| 8.3 | 162.7 | ~70.8 | C[C@@H]1Cc2cnc(NC3CCOCC3)nc2CN1C(=O)[C@H]1CCN(C)C[C@@H]1c1ccccc1 [Compound 47] |
| 8.28 | – | 141 | C[C@@H]1Cc2cnc(N[C@H]3CCC[C@H](O)C3)nc2CN1C(=O)[C@H]1CCN(C)C[C@@H]1c1ccccc1 [Compound 59] |
